The subject of assay [1] is Escherichia coli. The experiment in a line: Antibacterial activity against Escherichia coli ATCC 25922 at 30 ug/disk after 18 to 24 hr by disk diffusion method. To be noted: for zone of inhibition at 30 µg/disc: read-out: DIZ. The assay is classed as functional. For orientation: In agar diffusion tests the substance spreads into inoculated agar from a disc or well.
Assay [2] has as its system Klebsiella pneumoniae. The experiment in a line: Antibacterial activity against Klebsiella pneumoniae ATCC 13883 at 30 ug/disk after 18 to 24 hr by disk diffusion method. To be noted: for zone of inhibition at 30 µg/disc: read-out: DIZ. Type of assay: functional.
Assay [3] relates to Bacillus cereus. The experiment in a line: Antibacterial activity against Bacillus cereus ATCC 11778 at 30 ug/disk after 18 to 24 hr by disk diffusion method. The assay is classed as functional. To be noted: for zone of inhibition at 30 µg/disc: read-out: DIZ.
Assay [4] concerns Pseudomonas fluorescens. The experiment in a line: Antibacterial activity against Pseudomonas fluorescens ATCC 49838 at 30 ug/disk after 18 to 24 hr by disk diffusion method. The assay is classed as functional. To be noted: for zone of inhibition at 30 µg/disc: read-out: DIZ.
Assay [5] deals with Staphylococcus epidermidis. The experiment in a line: Antibacterial activity against Staphylococcus epidermidis ATCC 12228 at 30 ug/disk after 18 to 24 hr by disk diffusion method. To be noted: for zone of inhibition at 30 µg/disc: read-out: DIZ. The assay is classed as functional.
The test system of assay [6] is Pseudomonas fluorescens. The experiment in a line: Antibacterial activity against Pseudomonas fluorescens ATCC 49838 after 18 to 24 hr by broth microdilution method. Type of assay: functional. (In general: Dilution methods test growth across graded concentrations, often in twofold steps.)
In assay [7] the test system is Klebsiella pneumoniae. The experiment in a line: Antibacterial activity against Klebsiella pneumoniae ATCC 13883 after 18 to 24 hr by broth microdilution method. The assay is classed as functional.
Assay [8] deals with Klebsiella aerogenes. The experiment in a line: Antibacterial activity against Enterobacter aerogenes ATCC 13048 after 18 to 24 hr by broth microdilution method. The assay is classed as functional.
Assay [9] concerns Enterococcus faecalis. The experiment in a line: Antibacterial activity against Enterococcus faecalis ATCC 29212 at 30 ug/disk after 18 to 24 hr by disk diffusion method. The assay is classed as functional. To be noted: for zone of inhibition at 30 µg/disc: read-out: DIZ.
In assay [10] the test system is Pseudomonas aeruginosa. The experiment in a line: Antibacterial activity against Pseudomonas aeruginosa ATCC 27853 at 30 ug/disk after 18 to 24 hr by disk diffusion method. The assay is classed as functional. To be noted: for zone of inhibition at 30 µg/disc: read-out: DIZ.
Assay [11] deals with Bacillus subtilis. The experiment in a line: Antibacterial activity against Bacillus subtilis ATCC 6633 after 18 to 24 hr by broth microdilution method. Type of assay: functional.
Assay [12] concerns Pseudomonas aeruginosa. The experiment in a line: Antibacterial activity against Pseudomonas aeruginosa ATCC 27853 after 18 to 24 hr by broth microdilution method. Type of assay: functional.
Assay [13] relates to Candida albicans. The experiment in a line: Antifungal activity against Candida albicans ATCC 90028 at 30 ug/disk after 18 to 24 hr by disk diffusion method. The assay is classed as functional. To be noted: for zone of inhibition at 30 µg/disc: read-out: DIZ.
The subject of assay [14] is Bacillus subtilis. The experiment in a line: Antibacterial activity against Bacillus subtilis ATCC 6633 at 30 ug/disk after 18 to 24 hr by disk diffusion method. The assay is classed as functional. To be noted: for zone of inhibition at 30 µg/disc: read-out: DIZ.
Assay [15] deals with Staphylococcus aureus. The experiment in a line: Antibacterial activity against Staphylococcus aureus ATCC 25923 after 18 to 24 hr by broth microdilution method. The assay is classed as functional.
The test system of assay [16] is Enterococcus faecalis. The experiment in a line: Antibacterial activity against Enterococcus faecalis ATCC 29212 after 18 to 24 hr by broth microdilution method. Type of assay: functional.
Assay [17] concerns Staphylococcus aureus. The experiment in a line: Antibacterial activity against Staphylococcus aureus ATCC 25923 at 30 ug/disk after 18 to 24 hr by disk diffusion method. The assay is classed as functional. To be noted: for zone of inhibition at 30 µg/disc: read-out: DIZ.
In assay [18] the test system is Klebsiella aerogenes. The experiment in a line: Antibacterial activity against Enterobacter aerogenes ATCC 13048 at 30 ug/disk after 18 to 24 hr by disk diffusion method. The assay is classed as functional. To be noted: for zone of inhibition at 30 µg/disc: read-out: DIZ.
The subject of assay [19] is Staphylococcus epidermidis. The experiment in a line: Antibacterial activity against Staphylococcus epidermidis ATCC 12228 after 18 to 24 hr by broth microdilution method. The assay is classed as functional.
Assay [20] concerns Escherichia coli. The experiment in a line: Antibacterial activity against Escherichia coli ATCC 25922 after 18 to 24 hr by broth microdilution method. The assay is classed as functional.
Assay [21] concerns Candida albicans. The experiment in a line: Antifungal activity against Candida albicans ATCC 90028 after 18 to 24 hr by broth microdilution method. The assay is classed as functional.
The subject of assay [22] is Candida albicans. The experiment in a line: microbe, parasite or virus in culture. To be noted: ATCC 90028, read-out: DIZ.
Description: Antifungal activity against Candida albicans ATCC 90028 at 40 ug/disk after 18 to 24 hr by disk diffusion method
Assay [23] concerns Klebsiella aerogenes. The experiment in a line: Antibacterial activity against Enterobacter aerogenes ATCC 13048 at 40 ug/disk after 18 to 24 hr by disk diffusion method. Type of assay: functional. To be noted: read-out: DIZ.
For assay [24], the system named is Bacillus cereus. The experiment in a line: Antibacterial activity against Bacillus cereus ATCC 11778 at 40 ug/disk after 18 to 24 hr by disk diffusion method. Type of assay: functional. To be noted: read-out: DIZ.
Assay [25] has as its system Pseudomonas aeruginosa. The experiment in a line: Antibacterial activity against Pseudomonas aeruginosa ATCC 27853 at 40 ug/disk after 18 to 24 hr by disk diffusion method. The assay is classed as functional. To be noted: read-out: DIZ.
The test system of assay [26] is Escherichia coli. The experiment in a line: Antibacterial activity against Escherichia coli ATCC 25922 at 40 ug/disk after 18 to 24 hr by disk diffusion method. Type of assay: functional. To be noted: read-out: DIZ.
Assay [27] deals with Klebsiella pneumoniae. The experiment in a line: Antibacterial activity against Klebsiella pneumoniae ATCC 13883 at 40 ug/disk after 18 to 24 hr by disk diffusion method. Type of assay: functional. To be noted: read-out: DIZ.
For assay [28], the system named is Staphylococcus aureus. The experiment in a line: Antibacterial activity against Staphylococcus aureus ATCC 25923 at 40 ug/disc after 18 to 24 hr by disk diffusion method. Type of assay: functional. To be noted: read-out: DIZ.
The test system of assay [29] is Pseudomonas fluorescens. The experiment in a line: Antibacterial activity against Pseudomonas fluorescens ATCC 49838 at 40 ug/disk after 18 to 24 hr by disk diffusion method. The assay is classed as functional. To be noted: read-out: DIZ.
Assay [30] relates to Bacillus subtilis. The experiment in a line: Antibacterial activity against Bacillus subtilis ATCC 6633 at 40 ug/disk after 18 to 24 hr by disk diffusion method. To be noted: read-out: DIZ. The assay is classed as functional.
The subject of assay [31] is Enterococcus faecalis. The experiment in a line: Antibacterial activity against Enterococcus faecalis ATCC 29212 at 40 ug/disk after 18 to 24 hr by disk diffusion method. The assay is classed as functional. To be noted: read-out: DIZ.
In assay [32] the test system is Staphylococcus epidermidis. The experiment in a line: Antibacterial activity against Staphylococcus epidermidis ATCC 12228 at 40 ug/disk after 18 to 24 hr by disk diffusion method. Type of assay: functional. To be noted: read-out: DIZ.

Drawing on ChEMBL document CHEMBL3044670, “Aromatic sulfonyl hydrazides and sulfonyl hydrazones: antimicrobial activity and physical properties” (2013), this text covers zone of inhibition, MIC and inhibition zone (IZ) for 4 molecules.

For orientation: MIC means the smallest concentration in the dilution series that meets the test's criterion for growth inhibition. A low value points to inhibition by little substance.

Converted amounts (≈) assume the structure as drawn.

For `COc1cc(Cc2cnc(N)nc2N)cc(OC)c1OC` [TRIMETHOPRIM], the zone of inhibition at 30 µg/disc with Escherichia coli [1] was found to be 0 mm; in the assay with Klebsiella pneumoniae [2], 0 mm; in the assay on Bacillus cereus [3], 0 mm; in the assay with Pseudomonas fluorescens [4] it was 0 mm; in assay [5], 29 mm; with Enterococcus faecalis [9] it was 27 mm. In addition, the zone of inhibition at 30 µg/disc came out at 31 mm in the assay with Pseudomonas aeruginosa [10]; 0 mm in the assay with Candida albicans [13]; 20 mm with Bacillus subtilis [14]; 37 mm in the assay on Staphylococcus aureus [17]; 28 mm in the assay with Klebsiella aerogenes [18]. Besides, the MIC in the assay with Pseudomonas fluorescens [6], in the assay with Klebsiella pneumoniae [7], against Klebsiella aerogenes [8], in the assay on Bacillus subtilis [11], in the assay on Pseudomonas aeruginosa [12] and against Staphylococcus aureus [15] was 1 mg/L (≈ 3.44 µM) in each case. The MIC against Enterococcus faecalis [16] worked out at 0.5 mg/L (≈ 1.72 µM).
For `CN(C)[C@@H]1C(O)=C(C(N)=O)C(=O)[C@@]2(O)C(O)=C3C(=O)c4c(O)cccc4[C@@](C)(O)[C@H]3C[C@@H]12` [TETRACYCLINE], the MIC in assay [19] stood at 0.125 mg/L (≈ 0.281 µM); against Escherichia coli [20] it was 0.075 mg/L (≈ 0.169 µM); against Pseudomonas fluorescens [6], 0.125 mg/L (≈ 0.281 µM); in the assay on Klebsiella pneumoniae [7], 0.15 mg/L (≈ 0.338 µM); with Klebsiella aerogenes [8] it was 0.15 mg/L (≈ 0.338 µM); in the assay on Bacillus subtilis [11], 0.075 mg/L (≈ 0.169 µM). Besides, the figures for the MIC with Pseudomonas aeruginosa [12] and with Enterococcus faecalis [16] were 0.125 mg/L (≈ 0.281 µM) and 0.625 mg/L (≈ 1.41 µM), respectively. In addition, the zone of inhibition at 30 µg/disc was 23 mm in the assay with Escherichia coli [1]; 12 mm in the assay with Klebsiella pneumoniae [2]; 19 mm with Bacillus cereus [3]; 19 mm in the assay with Pseudomonas fluorescens [4]; 19 mm in [5]; 0 mm in the assay on Enterococcus faecalis [9]. The zone of inhibition at 30 µg/disc in the assay with Pseudomonas aeruginosa [10] worked out at 23 mm; in the assay with Candida albicans [13], 0 mm; in the assay on Bacillus subtilis [14] it was 26 mm; in the assay on Staphylococcus aureus [17] it was 0 mm; in the assay with Klebsiella aerogenes [18] it was 0 mm.
Take NYSTATIN: the inhibition zone (IZ) (in the assay with Escherichia coli [1]; in the assay with Klebsiella pneumoniae [2]; with Bacillus cereus [3]; with Pseudomonas fluorescens [4]; in assay [5]; in the assay on Enterococcus faecalis [9]) was 0 mm throughout. Further, the inhibition zone (IZ) with Pseudomonas aeruginosa [10] came out at 0 mm; with Candida albicans [13], 18 mm; with Bacillus subtilis [14], 0 mm; in the assay with Staphylococcus aureus [17] it was 0 mm; in the assay with Klebsiella aerogenes [18] it was 0 mm. In addition, in the assay with Candida albicans [21], it took 0.125 mg/L to inhibit growth (MIC).
For the molecule `Clc1ccc(COC(Cn2ccnc2)c2ccc(Cl)cc2Cl)c(Cl)c1` (stereo unspecified) [MICONAZOLE], the zone of inhibition at 40 µg/disc with Candida albicans [22] was 26 mm; with Klebsiella aerogenes [23], 0 mm; in the assay with Bacillus cereus [24] it was 0 mm; in the assay on Pseudomonas aeruginosa [25], 0 mm; with Escherichia coli [26], 0 mm; with Klebsiella pneumoniae [27], 0 mm. Moreover, the zone of inhibition at 40 µg/disc (in the assay with Staphylococcus aureus [28]; with Pseudomonas fluorescens [29]; in the assay with Bacillus subtilis [30]; in the assay with Enterococcus faecalis [31]; in [32]) was 0 mm throughout. In the assay with Candida albicans [21], this molecule gave an MIC of 0.15 mg/L (≈ 0.36 µM).
